# Assay results taken from US20110288154A1, “RNA Interference Mediated Inhibition of Epithelial Sodium Channel (ENaC) Gene Expression Using Short Interfering Nucleic Acid (siNA)” (MERCK & CO., INC., priority 2008, published 2011).
# [invAb] = inverted abasic unit; d = 2'-deoxy (DNA); m = 2'-O-methyl; r = 2'-OH (RNA); f = 2'-fluoro
# System: ENaCα mRNA
# Assay: Screening of ENaCα siNAs in human A549 cells (quantitative RT-PCR)
# Type: cell-based
# Parameters: Percent Reduction of the ENaCα mRNA relative to a non-targeting control siNA (NTC): concentration or dose not given beside the values
# Conditions: for Avg ENaCα Expression / Mean (level of ENaCα expression normalized to the level of GAPDH) / Percent Reduction of the ENaCα mRNA relative to a non-targeting control siNA (NTC) / Avg GAPDH Expression: human A549 cells, n = 3; for Avg ENaCα Expression: 25 nM siNA with Lipofectamine 2000, harvested 24 hours post-transfection; for Mean (level of ENaCα expression normalized to the level of GAPDH) / Percent Reduction of the ENaCα mRNA relative to a non-targeting control siNA (NTC) / Avg GAPDH Expression: 24 hours post-transfection; for Avg GAPDH Expression: housekeeping gene used for normalisation; for IC50 / Human % KD (efficacy of ENaCα mRNA knockdown): human cell line; for IC50: dose response, read-out: Human IC50 (potency of ENaCα mRNA knockdown); for Human % KD (efficacy of ENaCα mRNA knockdown): summary
# Experimental: siNA constructs (Table 1b) may be tested for efficacy in reducing ENaC RNA expression in, for example, A549 human lung carcinoma cells. A549 (human; ATCC cat# CCL-185) cells were cultured at 37° C. in the presence of 5% CO2 and grown in Ham's F12K medium with 2 mM L-glutamine adjusted to contain 1.5 g/L sodium bicarbonate and supplemented with fetal bovine serum at a final concentration of 10% and 100 U/mL penicillin. The A549 cells were plated approximately 24 hours before transfection in 96-well plates at 7,500 cells/well, 100 μl/well. After 24 hours complexes containing siNA and Lipofectamine 2000 (Invitrogen) were created as follows: a solution of Lipofectamine 2000 in OPTI-MEM was prepared containing Lipofectamine 2000 at a final concentration of 14 μg/ml. In parallel, solutions of the siNAs were prepared in OPTI-MEM at a final concentration of 150 nM. After both solutions were incubated at 20° C. for 20 minutes an equal volume of the siNA solutions and the Lipofectamine 2000 solution were added together for each of the siNAs. The resultant solution has the siNAs at a final concentration of 75 nM and Lipofectamine 2000 at a final concentration of 7 μg/ml. This solution was incubated at 20° C. for 20 minutes. After incubation 50 μl of the solution were added to each of the wells (in triplicate). The final concentration of siNA in each well was 25 nM and the final concentration of Lipofectamine 2000 in each well was 2.33 μg/ml. […] Dose response curves were determined in a similar manner with each concentration being done in triplicate and maintaining a constant amount of Lipofectamine 2000 in each transfection.
# RNA was extracted from 96-well plates using the Invitek Invisorb RNA Cell HTS 96 Kit/C (Cat# 70619000) with a slightly modified protocol. The details of the protocol for isolating RNA from each plate are described as follows:
# 1) Aspirate media with rake 2) Add 150 ul/well Lysis buffer 3) Place on plate shaker for 1 minute 4) Place DNA binding plate on top of 0.5 ml collection plate 5) Pipette 190 ul up and down twice and add to DNA binding plate 6) Cover plate 7) Centrifuge plates 4 minutes at 4000 RPM 8) Discard DNA binding plate 9) Place the RNA binding plate on top of 2 ml collection plate 10) Add 150 ul/well of Binding Buffer R to 0.5 ml collection plate 11) Move contents of 0.5 ml collection plate to RNA binding plate 12) Let incubate for 1 minute 13) Centrifuge plates 4 minutes at 4000 RPM 14) Add 600 ul/well of Wash Buffer R1 to RNA binding plate 15) Centrifuge plates 4 minutes at 4000 RPM 16) Dump wash buffer from 2 ml collection plate 17) Add 400 ul/well of Wash Buffer R2 to RNA binding plate 18) Centrifuge plates 4 minutes at 4000 RPM 19) Add 400 ul/well of Wash Buffer R2 to RNA binding plate 20) Centrifuge plates 10 minutes at 4000 RPM 21) Dump wash buffer from 2 ml collection plate 22) Centrifuge plates 3 minutes at 4000 RPM 23) Discard 2 ml collection plate and place RNA binding plate on to microtiter plate 24) Add 100 ul/well of elution buffer to RNA binding plate 25) Incubate for 2 minutes 26) Seal plate 27) Centrifuge plates 3 minutes at 4000 RPM 28) Discard RNA binding plate 29) Cover microtiter plate for storage in −80 freezer
# A series of probes and primers were used to detect the various mRNA transcripts of the genes of ENaCa and GAPDH in mouse, rat, and human cell lines. The assays were performed on an ABI 7500 instrument, according to the manufacturer's instructions. Within each experiment, the baseline was set in the exponential phase of the amplification curve, and based on the intersection point of the baselines with the amplification curve, a Ct value was assigned by the instrument. This Ct value was then assigned a QTY value based on the Standard Curve. The standard curve in the various experiments herein used 1 ng to 300 ng of RNA extracted from the same cell line used for the experimental transfections. […]
substance,measurement,value
"B GuGGcuGuGccuAcAucuu TTB / AAGAuGuAGGcAcAGccAcUU (sense GUGGCUGUGCCUACAUCUUTT; antisense AAGAUGUAGGCACAGCCACUU; siRNA; sense: DNA at AGT, 2'-fluoro at CU, [invAb] at 5' end, 3' end, backbone not given here; antisense: sugars from the 5' end rrrmfmfmmmfmfmmffmfmm, backbone not given here) [Site 1385]",Avg ENaCα Expression,90.81
same,Mean (level of ENaCα expression normalized to the level of GAPDH),0.81
same,Percent Reduction of the ENaCα mRNA relative to a non-targeting control siNA (NTC),−23.6%
same,Avg GAPDH Expression,119.04
"B AccGcAuGAAGAcGGccuu TTB / AAGGccGucuucAuGcGGuUU (chain 1 ACCGCAUGAAGACGGCCUUTT; chain 2 AAGGCCGUCUUCAUGCGGUUU; siRNA; chain 1: DNA at AGT, 2'-fluoro at CU, [invAb] at 5' end, 3' end, backbone not given here; chain 2: sugars from the 5' end rrrmffmfffffmfmfmmfmm, backbone not given here) [Site 338]",Avg ENaCα Expression,65.83
same,Mean (level of ENaCα expression normalized to the level of GAPDH),0.90
same,Percent Reduction of the ENaCα mRNA relative to a non-targeting control siNA (NTC),42.2%
same,Avg GAPDH Expression,76.32
"B AccuGGGcAGccAGuGGAG TTB / CUCcAcuGGcuGcccAGGuUU (sense ACCUGGGCAGCCAGUGGAGTT; antisense CUCCACUGGCUGCCCAGGUUU; siRNA; sense: DNA at AGT, 2'-fluoro at CU, [invAb] at 5' end, 3' end, backbone not given here; antisense: sugars from the 5' end rrrfmffmmffmfffmmmfmm, backbone not given here) [Site 1748]",Avg ENaCα Expression,80.25
same,Mean (level of ENaCα expression normalized to the level of GAPDH),0.61
same,Percent Reduction of the ENaCα mRNA relative to a non-targeting control siNA (NTC),7.2%
same,Avg GAPDH Expression,131.14
"B uGuGcAAccAGAAcAAAuc TTB / GAUuuGuucuGGuuGcAcAUU (chain 1 UGUGCAACCAGAACAAAUCTT; chain 2 GAUUUGUUCUGGUUGCACAUU; siRNA; B caps on sense ends, letter-case modifications not given here, further chemistry not given here) [Site 782]",Avg ENaCα Expression,39.99
same,Mean (level of ENaCα expression normalized to the level of GAPDH),0.61
same,Percent Reduction of the ENaCα mRNA relative to a non-targeting control siNA (NTC),60.9%
same,Avg GAPDH Expression,66.25
same,IC50,360 pM
same,Human % KD (efficacy of ENaCα mRNA knockdown),60-85%
"B GGcuGuGccuAcAucuucu TTB / AGAAGAuGucGGcAcAGccUU (sense GGCUGUGCCUACAUCUUCUTT; antisense AGAAGAUGUCGGCACAGCCUU; siRNA; sense: DNA at AGT, 2'-fluoro at CU, [invAb] at 5' end, 3' end, backbone not given here; antisense: sugars from the 5' end rrrmmmfmffmmfmfmmffmm, backbone not given here) [Site 1387]",Avg ENaCα Expression,46.10
same,Mean (level of ENaCα expression normalized to the level of GAPDH),0.43
same,Percent Reduction of the ENaCα mRNA relative to a non-targeting control siNA (NTC),34.2%
same,Avg GAPDH Expression,106.19
"B uGGGcAGccAGuGGAGccu TTB / AGGcuccAcuGGcuGcccAUU (sense UGGGCAGCCAGUGGAGCCUTT; antisense AGGCUCCACUGGCUGCCCAUU; siRNA; sense: DNA at AGT, 2'-fluoro at CU, [invAb] at 5' end, 3' end, backbone not given here; antisense: sugars from the 5' end rrrffffmffmmffmfffmmm, backbone not given here) [Site 1751]",Avg ENaCα Expression,63.35
same,Mean (level of ENaCα expression normalized to the level of GAPDH),0.49
same,Percent Reduction of the ENaCα mRNA relative to a non-targeting control siNA (NTC),25.4%
same,Avg GAPDH Expression,128.83
"B uGuccAAccuGGGcAGccA TTB / UGGcuGcccAGGuuGGAcAUU (sense UGUCCAACCUGGGCAGCCATT; antisense UGGCUGCCCAGGUUGGACAUU; siRNA; sense: DNA at AGT, 2'-fluoro at CU, [invAb] at 5' end, 3' end, backbone not given here; antisense: sugars from the 5' end rrrffmfffmmmffmmmfmmm, backbone not given here) [Site 1742]",Avg ENaCα Expression,58.12
same,Mean (level of ENaCα expression normalized to the level of GAPDH),0.53
same,Percent Reduction of the ENaCα mRNA relative to a non-targeting control siNA (NTC),19.7%
same,Avg GAPDH Expression,109.65
"B GcAuGAAGAcGGccuucuG TTB / CAGAAGGccGuCuucAuGcUU (chain 1 GCAUGAAGACGGCCUUCUGTT; chain 2 CAGAAGGCCGUCUUCAUGCUU; siRNA; chain 1: DNA at AGT, 2'-fluoro at CU, [invAb] at 5' end, 3' end, backbone not given here; chain 2: sugars from the 5' end rrrmmmmffmfmfffmfmfmm, backbone not given here) [Site 341]",Avg ENaCα Expression,62.42
same,Mean (level of ENaCα expression normalized to the level of GAPDH),1.62
same,Percent Reduction of the ENaCα mRNA relative to a non-targeting control siNA (NTC),−4.3%
same,Avg GAPDH Expression,48.12
"B AAccGCAuGAAGAcGGccu TTB / AGGccGucuucAuGcGGuuUU (chain 1 AACCGCAUGAAGACGGCCUTT; chain 2 AGGCCGUCUUCAUGCGGUUUU; siRNA; chain 1: sugars from the 5' end ddffdddfdddddfddfffdd, [invAb] at 5' end, 3' end, backbone not given here; chain 2: sugars from the 5' end rrrffmfffffmfmfmmffmm, backbone not given here) [Site 337]",Avg ENaCα Expression,67.27
same,Mean (level of ENaCα expression normalized to the level of GAPDH),1.48
same,Percent Reduction of the ENaCα mRNA relative to a non-targeting control siNA (NTC),5.0%
same,Avg GAPDH Expression,49.84
"B ccGcAuGAAGAcGGccuuc TTB / GAAGGccGucuucAuGcGGUU (chain 1 CCGCAUGAAGACGGCCUUCTT; chain 2 GAAGGCCGUCUUCAUGCGGUU; siRNA; chain 1: DNA at AGT, 2'-fluoro at CU, [invAb] at 5' end, 3' end, backbone not given here; chain 2: sugars from the 5' end rrrmmffmfffffmfmfmmmm, backbone not given here) [Site 339]",Avg ENaCα Expression,69.05
same,Mean (level of ENaCα expression normalized to the level of GAPDH),1.13
same,Percent Reduction of the ENaCα mRNA relative to a non-targeting control siNA (NTC),27.1%
same,Avg GAPDH Expression,62.02
"B GcuGuGccuAcAucuucuA TTB / UAGAAGAuGuAGGcAcAGcUU (sense GCUGUGCCUACAUCUUCUATT; antisense UAGAAGAUGUAGGCACAGCUU; siRNA; B caps on sense ends, letter-case modifications not given here, further chemistry not given here) [Site 1388]",Avg ENaCα Expression,36.49
same,Mean (level of ENaCα expression normalized to the level of GAPDH),0.30
same,Percent Reduction of the ENaCα mRNA relative to a non-targeting control siNA (NTC),54.1%
same,Avg GAPDH Expression,120.24
same,IC50,190 pM
same,Human % KD (efficacy of ENaCα mRNA knockdown),55-80%
